Active and inactive are the calls of the source. The calls are words filed in the database; no cut-off is given here.

Consider nine compounds from ChEMBL document CHEMBL4396887, “Five-Membered N-Heterocyclic Scaffolds as Novel Amino Bioisosteres at γ-Aminobutyric Acid (GABA) Type A Receptors and GABA Transporters” (J Med Chem, 2019).

Series [1] deals with T1, Gamma-aminobutyric acid receptor subunit rho-1 (Homo sapiens, UniProt P24046). Briefly: Agonist activity at recombinant human GABA-A rho-1 receptor transiently expressed in human tsA201 cells at >= 100 uM incubated for 30 mins and measured up to 90 secs by FMP dye based FLIPR membrane potential blue assay. Format: cell-based.
T1 sequence (P24046 whole entry): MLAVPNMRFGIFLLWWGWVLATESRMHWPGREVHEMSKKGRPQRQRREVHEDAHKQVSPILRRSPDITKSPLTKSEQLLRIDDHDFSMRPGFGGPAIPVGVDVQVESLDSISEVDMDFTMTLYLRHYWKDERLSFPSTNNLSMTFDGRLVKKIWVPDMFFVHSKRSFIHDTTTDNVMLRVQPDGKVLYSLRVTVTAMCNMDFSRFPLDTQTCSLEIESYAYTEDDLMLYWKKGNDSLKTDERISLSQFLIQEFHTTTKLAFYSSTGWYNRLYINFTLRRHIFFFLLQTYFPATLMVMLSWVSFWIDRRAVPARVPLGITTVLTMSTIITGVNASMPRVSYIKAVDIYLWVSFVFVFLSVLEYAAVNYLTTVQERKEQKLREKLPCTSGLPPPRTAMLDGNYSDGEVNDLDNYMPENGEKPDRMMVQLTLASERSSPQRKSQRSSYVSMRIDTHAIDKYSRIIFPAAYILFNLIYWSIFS
The species named for series [2] is Homo sapiens. Briefly: Agonist activity at recombinant human GABA-A alpha3beta2gamma2S receptor transiently expressed in human tsA201 cells at >= 100 uM incubated for 30 mins and measured up to 90 secs by FMP dye based FLIPR membrane potential blue assay. Format: cell-based.
Series [3] is filed under the species Homo sapiens.
Series [4] concerns the target T2, GABA-A receptor; alpha-1/beta-2/gamma-2 (Homo sapiens) (UniProt P14867+P47870+P18507). Briefly: Agonist activity at recombinant human GABA-A alpha1beta2gamma2S receptor transiently expressed in human tsA201 cells at >= 300 uM incubated for 30 mins and measured up to 90 secs by FMP dye based FLIPR membrane potential blue assay. Format: cell-based.
Series [5] addresses T3, Gamma-aminobutyric acid receptor subunit alpha-4/beta-2/gamma-2 (Homo sapiens, UniProt P47870+P18507+P48169). The experiment in a line: Agonist activity at recombinant human GABA-A alpha4beta2gamma2S receptor transiently expressed in human tsA201 cells at >= 300 uM incubated for 30 mins and measured up to 90 secs by FMP dye based FLIPR membrane potential blue assay. It is filed as cell-based.

The target in series [6] is T4, GABA-A receptor; alpha-1/beta-2/gamma-2 (Homo sapiens, UniProt P14867+P47870+P18507).
T4 sequence (P14867 whole entry): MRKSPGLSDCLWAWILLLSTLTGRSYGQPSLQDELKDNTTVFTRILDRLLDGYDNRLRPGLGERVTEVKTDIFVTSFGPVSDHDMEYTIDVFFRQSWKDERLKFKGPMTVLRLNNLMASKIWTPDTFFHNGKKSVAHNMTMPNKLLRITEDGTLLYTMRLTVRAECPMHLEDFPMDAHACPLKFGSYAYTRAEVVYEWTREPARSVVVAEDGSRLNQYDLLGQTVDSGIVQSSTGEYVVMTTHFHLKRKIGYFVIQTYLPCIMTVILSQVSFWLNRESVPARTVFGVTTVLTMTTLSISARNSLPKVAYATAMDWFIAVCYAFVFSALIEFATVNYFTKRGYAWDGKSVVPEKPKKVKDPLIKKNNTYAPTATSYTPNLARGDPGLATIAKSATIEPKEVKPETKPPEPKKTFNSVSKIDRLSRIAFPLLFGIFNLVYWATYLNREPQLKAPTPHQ
T4 sequence (P47870 whole entry): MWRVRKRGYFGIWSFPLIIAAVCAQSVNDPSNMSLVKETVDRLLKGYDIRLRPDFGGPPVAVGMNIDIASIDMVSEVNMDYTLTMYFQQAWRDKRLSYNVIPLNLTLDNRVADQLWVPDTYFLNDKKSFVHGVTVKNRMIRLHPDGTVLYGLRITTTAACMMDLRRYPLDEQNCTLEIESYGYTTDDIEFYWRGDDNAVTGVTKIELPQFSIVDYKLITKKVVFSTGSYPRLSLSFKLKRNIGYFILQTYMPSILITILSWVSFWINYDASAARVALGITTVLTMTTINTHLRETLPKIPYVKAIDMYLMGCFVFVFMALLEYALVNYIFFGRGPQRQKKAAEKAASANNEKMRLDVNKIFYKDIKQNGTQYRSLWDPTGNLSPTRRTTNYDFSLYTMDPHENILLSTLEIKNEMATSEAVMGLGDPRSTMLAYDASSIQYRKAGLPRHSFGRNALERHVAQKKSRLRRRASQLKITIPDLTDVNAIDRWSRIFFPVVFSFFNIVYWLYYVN
T4 sequence (P18507 whole entry): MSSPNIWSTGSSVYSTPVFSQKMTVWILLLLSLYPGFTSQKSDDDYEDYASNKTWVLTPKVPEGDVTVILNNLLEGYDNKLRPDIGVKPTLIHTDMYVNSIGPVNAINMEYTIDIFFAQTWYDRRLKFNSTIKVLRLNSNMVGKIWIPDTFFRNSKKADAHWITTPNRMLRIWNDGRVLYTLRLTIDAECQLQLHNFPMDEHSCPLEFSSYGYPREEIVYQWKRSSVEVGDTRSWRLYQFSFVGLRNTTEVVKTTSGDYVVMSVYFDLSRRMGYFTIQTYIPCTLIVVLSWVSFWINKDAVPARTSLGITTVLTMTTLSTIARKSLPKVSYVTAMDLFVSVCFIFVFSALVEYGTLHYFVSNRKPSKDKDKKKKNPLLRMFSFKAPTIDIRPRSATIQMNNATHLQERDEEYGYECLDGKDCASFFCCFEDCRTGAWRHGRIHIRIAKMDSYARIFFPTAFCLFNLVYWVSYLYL
Briefly: Agonist activity at recombinant human GABA-A alpha1beta2gamma2S receptor transiently expressed in human tsA201 cells incubated for 30 mins and measured up to 90 secs by FMP dye based FLIPR membrane potential blue assay. Format: cell-based.

For series [7], the species on record is Homo sapiens. Briefly: Agonist activity at recombinant human GABA-A alpha3beta2gamma2S receptor transiently expressed in human tsA201 cells at >= 300 uM incubated for 30 mins and measured up to 90 secs by FMP dye based FLIPR membrane potential blue assay. Format: cell-based.
Series [8] is described as follows: Ionization constant, pKa2 of the compound at 1 mM by potentiometric titration assay. It is filed as physicochemical.
For series [9], the target named is T3, Gamma-aminobutyric acid receptor subunit alpha-4/beta-2/gamma-2. The experiment in a line: Agonist activity at recombinant human GABA-A alpha4beta2gamma2S receptor transiently expressed in human tsA201 cells at >= 100 uM incubated for 30 mins and measured up to 90 secs by FMP dye based FLIPR membrane potential blue assay. Format: cell-based.
In series [10] the target is T1, Gamma-aminobutyric acid receptor subunit rho-1. Briefly: Antagonist activity at recombinant human GABA-A rho-1 receptor transiently expressed in human tsA201 cells incubated for 30 mins and measured up to 90 secs by FMP dye based FLIPR membrane potential blue assay. It is filed as cell-based.
Series [11] shares this target. Briefly: Agonist activity at recombinant human GABA-A rho-1 receptor transiently expressed in human tsA201 cells at 300 uM incubated for 30 mins and measured up to 90 secs by FMP dye based FLIPR membrane potential blue assay. It is filed as cell-based.
Series [12] concerns the target T3, Gamma-aminobutyric acid receptor subunit alpha-4/beta-2/gamma-2. The experiment in a line: Agonist activity at recombinant human GABA-A alpha4beta2gamma2S receptor transiently expressed in human tsA201 cells at >= 1000 uM incubated for 30 mins and measured up to 90 secs by FMP dye based FLIPR membrane potential blue assay. It is filed as cell-based.
For series [13], the species on record is Homo sapiens. Briefly: Selectivity ratio of IC50 for human GAT3 expressed in Flp-In CHO cells to IC50 for human BGT1 expressed in Flp-In CHO cells. Format: cell-based.
The species entered for series [14] is Homo sapiens. The experiment in a line: Selectivity ratio of IC50 for human GAT1 expressed in Flp-In CHO cells to IC50 for human BGT1 expressed in Flp-In CHO cells. It is filed as cell-based.
The species named for series [15] is Homo sapiens. The experiment in a line: Selectivity ratio of IC50 for human GAT2 expressed in Flp-In CHO cells to IC50 for human BGT1 expressed in Flp-In CHO cells. It is filed as cell-based.
In series [16] the target is T2, GABA-A receptor; alpha-1/beta-2/gamma-2 (Homo sapiens). Briefly: Agonist activity at recombinant human GABA-A alpha1beta2gamma2S receptor transiently expressed in human tsA201 cells at >= 1000 uM incubated for 30 mins and measured up to 90 secs by FMP dye based FLIPR membrane potential blue assay. Format: cell-based.

Regarding `O=C(O)C[C@@H]1CCNC1`, the outcome (in series [1]; in the series listed under Homo sapiens [2]; in series [4]; in series [5]) was Active. In addition, the pEC50 result in the series listed under Homo sapiens [3] is “inactive”. For the same compound, in [6], the EC50 result is reported as “Not Active”.

For the compound `CC(C(=O)O)C1CSC(N)=N1` (stereo in doubt; l-10b), the EC50 entry in [6] is “Not Active”.

Consider `C[C@H]1SC(N)=N[C@@H]1CC(=O)O` (relative stereo), for which the result (in series [1]; in the series filed under Homo sapiens [7]; in series [4]; in series [5]) was Active. For the same compound, in the series filed under Homo sapiens [3], the pEC50 result was “inactive”. The EC50 result in [6] is “Not Active”.

For orientation: pKa means the negative logarithm of the acid dissociation constant. In series [8], `O=C(O)CC1CNC=N1` (stereo not drawn) gave a pKa at 1000 µM of 9.63.

As usually defined, the IC50 is the concentration needed to halve the response being measured. Turning to `C[C@@H](C(=O)O)[C@H]1CSC(N)=N1` (relative stereo), in series [9], the result was Active. Further, the IC50 in [10] worked out at 300 µM. In addition, the result in series [11] was inactive.

For `C[C@@H](C(=O)O)[C@@H]1CSC(N)=N1` (relative stereo), the result in series [12] was Active.

As for `NC1=NC(CC(=O)O)CN1` (stereo not drawn), the pKa at 1000 µM in series [8] turned out to be 10.1. Moreover, the Ratio IC50 in the series listed under Homo sapiens [13], in the series filed under Homo sapiens [14] and in the series filed under Homo sapiens [15] was 14 to 44 in each case.

Compound `NC1=NC(CC(=O)O)CS1` (stereo not drawn) showed a pKa at 1000 µM in series [8] of 8.62.

For `C[C@@H]1SC(N)=N[C@@H]1CC(=O)O` (relative stereo), the result in series [16] and in [5] was Active. The IC50 in series [10] turned out to be 100 µM. Also, the result in series [11] was inactive. Also, the EC50 result in series [6] is listed as “Not Active”.
